Structures can show the parent of a compound that is named as a salt. Where two headings read alike, the source gives them in different places.
Biological target: AaDOP2 (Aedes aegypti, UniProt H6D5H2)
Assay: AaDOP2 antagonist screen of the LOPAC1280 library (HEK-CRELuc-Aadop2 cells, luminescence)
Type: cell-based
[1] = 10 µM compound, 300 nM dopamine, 2 hr, hit = compound effect <20

Sequence of AaDOP2 (H6D5H2 1-476): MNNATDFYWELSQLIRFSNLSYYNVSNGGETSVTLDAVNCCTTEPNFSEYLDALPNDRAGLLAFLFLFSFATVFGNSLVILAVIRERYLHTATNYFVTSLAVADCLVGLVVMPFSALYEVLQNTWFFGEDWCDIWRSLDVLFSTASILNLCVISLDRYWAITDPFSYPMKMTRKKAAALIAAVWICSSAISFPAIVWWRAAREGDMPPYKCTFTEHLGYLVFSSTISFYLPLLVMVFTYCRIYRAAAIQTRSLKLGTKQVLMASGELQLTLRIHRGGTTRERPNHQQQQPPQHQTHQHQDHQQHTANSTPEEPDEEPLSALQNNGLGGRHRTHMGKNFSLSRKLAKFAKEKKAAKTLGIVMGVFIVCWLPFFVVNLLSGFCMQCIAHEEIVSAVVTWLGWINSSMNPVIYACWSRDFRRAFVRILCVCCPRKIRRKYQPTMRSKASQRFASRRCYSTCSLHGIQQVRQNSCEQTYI

| SMILES | Compound effect (percent receptor signaling in presence of test compound, relative lux units relative to the SCH23390 control) | Compound effect (percent receptor signaling in presence of test compound, relative lux units relative to the SCH23390 control) [1] |
| --- | --- | --- |
| COc1ccc2c(c1)c(CC(=O)O)c(C)n2Cc1ccc(Cl)cc1 [Compound 232, 1-(4-Chlorobenzyl)-5-methoxy-2-methylindole-3-acetic acid] | 77 | – |
| C[N+](C)(C)CCO.[Br-] [Compound 234, Choline bromide] | 89 | – |
| NC(=O)c1cc(N2CC2)c([N+](=O)[O-])cc1[N+](=O)[O-] [Compound 236, CB 1954] | 81 | – |
| Cl.Cl.NCCC(=O)NCCc1cnc[nH]1 [Compound 237, Carcinine dihydrochloride] | – | 95% |
| C[C@]12C[C@H](O)[C@H]3[C@@H](CCC4=CC(=O)CC[C@@]43C)[C@@H]1CC[C@@H]2C(=O)CO [Compound 238, Corticosterone] | 87 | – |
| N.N.O=C([O-])C1(C(=O)[O-])CCC1.[Pt+2] [Compound 239, Carboplatin] | 83 | – |
| C[C@]12CCC(=O)C=C1CC[C@@H]1[C@@H]2C(=O)C[C@@]2(C)[C@H]1CC[C@]2(O)C(=O)CO [Compound 240, Cortisone] | – | 86% |
| COc1ccc2c(c[n+](C)c3c4cc5c(cc4ccc23)OCO5)c1OC [Compound 241, Chelerythrine chloride] | 112 | – |
| Clc1ccc(C(c2ccccc2Cl)C(Cl)Cl)cc1 (stereo not shown) [Compound 242, 1-(2-Chlorophenyl)-1-(4-chlorophenyl)-2,2-dichloroethane] | 108 | – |
| CC(=O)OCC(=O)[C@@]1(O)CC[C@H]2[C@@H]3CCC4=CC(=O)CC[C@]4(C)[C@H]3C(=O)C[C@@]21C [Compound 244, Cortisone 21-acetate] | 110 | – |
| CCn1cnc2c(Nc3cccc(Cl)c3)nc(N[C@@H]3CCCC[C@@H]3N)nc21.Cl [Compound 246, CGP-74514A hydrochloride] | 99 | – |
| CC(=O)O[C@]1(C(C)=O)CC[C@H]2[C@@H]3C=C(Cl)C4=CC(=O)[C@@H]5C[C@@H]5[C@]4(C)[C@H]3CC[C@@]21C [Compound 247, Cyproterone acetate] | 115 | – |
| N[C@@H]1CON=C1O [Compound 250, D-Cycloserine] | 91 | – |
| Clc1ccc(C(c2ccc(Cl)cc2)n2cc[n+](CC(OCc3ccc(Cl)cc3Cl)c3ccc(Cl)cc3Cl)c2)cc1 (stereo not shown) [Compound 252, Calmidazolium chloride] | 44 | – |
| Cn1cc(C(=O)OCC2CCN(CCNS(C)(=O)=O)CC2)c2ccccc21 [Compound 253, GR 113808] | 97 | – |
| NC(=O)N1c2ccccc2C=Cc2ccccc21 [Compound 254, Carbamazepine] | 75 | – |
| C[C@H](CS)C(=O)N1CCC[C@H]1C(=O)O [Compound 255, Captopril] | 112 | – |
| CCc1cccc(N(C)C(N)=Nc2cccc3ccccc23)c1 [Compound 256, CNS-1102] | 107 | – |
| C[N+](C)(C)CCOC(N)=O [Compound 257, Carbachol] | 99 | – |

| SMILES | Compound effect (percent receptor signaling in presence of test compound, relative lux units relative to the SCH23390 control) | Compound effect (percent receptor signaling in presence of test compound, relative lux units relative to the SCH23390 control) [1] |
| --- | --- | --- |
| N[C@@H](CS(=O)O)C(=O)O [Compound 259, L-Cysteinesulfinic Acid] | 116 | – |
| Nc1ncnc2c1ncn2C1CCCC1 [Compound 260, 9-cyclopentyladenine] | 116 | – |
| CC(=O)OCC1=C(C(=O)O)N2C(=O)[C@@H](NC(=O)Cc3cccs3)[C@H]2SC1 [Compound 261, Cephalothin sodium] | 92 | – |
| CN/C(=N/CCSCc1nc[nH]c1C)NC#N [Compound 262, Cimetidine] | 88 | – |
| CN(C)CCC=C1c2ccccc2C=Cc2ccccc21 [Compound 263, Cyclobenzaprine hydrochloride] | 106 | – |
| CCN(CC)CCOCCOC(=O)C1(c2ccccc2)CCCC1 [Compound 264, Carbetapentane citrate] | 93 | – |
| CC1=C(C(=O)O)N2C(=O)[C@@H](NC(=O)[C@H](N)c3ccccc3)[C@H]2SC1.O [Compound 265, Cephalexin hydrate] | – | 87% |
| CN(C)CC[C@@H](c1ccc(Cl)cc1)c1ccccn1 [Compound 267, (+)-Chlorpheniramine maleate] | 106 | – |
| Cc1nnc(SCC2=C(C(=O)O)N3C(=O)[C@@H](NC(=O)Cn4cnnn4)[C@H]3SC2)s1 [Compound 268, Cefazolin sodium] | 96 | – |
| Cl.Clc1ccc(Cn2c(CN3CCCC3)nc3ccccc32)cc1 [Compound 269, Clemizole hydrochloride] | 96 | – |
| Nc1nc(Cl)nc2c1ncn2[C@@H]1O[C@H](CO)[C@@H](O)[C@H]1O [Compound 270, 2-Chloroadenosine] | 118 | – |
| CC(C[N+](C)(C)C)OC(N)=O (stereo not shown) [Compound 271, Bethanechol chloride] | 116 | – |
| Cl.Cl.Clc1cccc(N2CCNCC2)c1 [Compound 273, 1-(3-Chlorophenyl)piperazine dihydrochloride] | 99 | – |
| Cc1cc(NC(=O)Nc2ccc3c(ccn3C)c2)sn1 [Compound 274, SB 204741] | 95 | – |
| CO/N=C(\C(=O)N[C@@H]1C(=O)N2C(C(=O)O)=C(CSc3nc(=O)c(=O)[nH]n3C)CS[C@H]12)c1csc(N)n1 [Compound 275, Ceftriaxone sodium] | 97 | – |
| O=C(O)c1cc[c]([Hg][Cl])cc1 [Compound 276, 4-Chloromercuribenzoic acid] | 96 | – |
| CN1C(=O)CC[C@H]1c1cccnc1 [Compound 277, (-)-Cotinine] | 96 | – |
| C[C@H](Cc1ccc2c(c1)OC(C(=O)O)(C(=O)O)O2)NC[C@H](O)c1cccc(Cl)c1 [Compound 278, CL 316,243] | 101 | – |

Reference: article PMC3265452 (PLoS Neglected Tropical Diseases, 2012)
